The test relates to LPS induced TNF release. Put plainly: THP1 cell assay (LPS induced TNF release). Format: cell-based. Particulars: Homo sapiens, THP-1; THP1 cells, LPS induced TNF-α secretion, 3 h at 37° C. The protocol: Lipopolysaccharide-Activated THP1 Cell TNF Production Assay
THP1 cells are resuspended in fresh THP1 media (RPMI 1640, 10% heat-inactivated FBS, 1XPGS, 1XNEAA, plus 30 μM OME) at a concentration of 1E6/mL. One hundred microliters of cells per well are plated in a polystyrene 96-well tissue culture. One microgram per mL of bacterial LPS is prepared in THP1 media and is transferred to the wells. Test compounds are dissolved in 100% DMSO and are serially diluted 3-fold in a polypropylene 96-well microtiter plate (drug plate). HI control and LO control wells contain only DMSO. One microliter of test compound from the drug plate followed by 10 μL of LPS are transferred to the cell plate. The treated cells are induced to synthesize and secrete TNF-α at 37° C. for 3 h. Forty microliters of conditioned media are transferred to a 96-well polypropylene plate containing 110 μL of ECL buffer (50 mM Tris-HCl pH 8.0, 100 mM NaCl, 0.05% Tween 20, 0.05% NaN3 and 1% FBS) supplemented with 0.44 nM MAB610 monoclonal Ab (R&D Systems), 0.34 nM ruthenylated AF210NA polyclonal Ab (R&D Systems) and 44 μg/mL sheep anti-mouse M280 Dynabeads (Dynal). After a 2 h incubation at RT with shaking, the reaction is read on the ECL M8 Instrument (IGEN Inc.). A low voltage is applied to the ruthenylated TNF-α immune complexes, which in the presence of TPA (the active component in Origlo), results in a cyclical redox reaction generating light at […]. The amount of secreted TNF-α in the presence of compound compared with that in the presence of DMSO vehicle alone (HI control) is calculated using the formula: % control (POC)=(cpd−average LO)/(average HI−average LO)*100. Data (consisting of POC and inhibitor concentration in μM) is fitted to a 4-parameter equation (y=A+((B−A)/(I+((x/C)ˆD))), where A is the minimum y (POC) value, B is the maximum y (POC), C is the x (cpd concentration) at the point of inflection and D is the slope factor) using a Levenburg-Marquardt non-linear regression algorithm.

Some results are limits rather than exact numbers.

Broadly, the IC50 is the point on the concentration scale where inhibition reaches its midpoint. A high value points to weaker potency in that assay.

As for `c1ccc(CCNc2nccc(N3CCCc4cnc(-c5ccccc5)cc43)n2)cc1` [Example 3, N-Phenethyl-4-(7-phenyl-3,4-dihydro-1,6-naphthyridin-1(2H)-yl)pyrimidin-2-amine], the IC50 is not above 20 µM.
Then `CC(Cc1cccc(CO)c1)Nc1nccc(N2CCCc3cnc(-c4ccccc4)cc32)n1` (centres unmarked) [Example 4, (3-(2-(4-(7-Phenyl-3,4-dihydro-1,6-naphthyridin-1(2H)-yl)pyrimidin-2-ylamino)-propyl)phenyl)methanol], with not above 20 µM; and `CC(Cc1cccc(CN)c1)Nc1nccc(N2CCCc3cnc(-c4ccccc4)cc32)n1` (centres unmarked) [Example 5, N-(1-(3-(Aminomethyl)phenyl)propan-2-yl)-4-(7-phenyl-3,4-dihydro-1,6-naphthyridin-1(2H)-yl)pyrimidin-2-amine], with not above 20 µM; and `CC(C)(C)OC(=O)N1CCC(Nc2nccc(N3CCCc4cnc(-c5ccccc5)cc43)n2)CC1` [Example 7, tert-Butyl 4-(4-(7-phenyl-3,4-dihydro-1,6-naphthyridin-1(2H)-yl)pyrimidin-2-ylamino)piperidine-1-carboxylate], with not above 20 µM.
Compound `c1ccc(-c2cc3c(cn2)CCCN3c2ccnc(NC3CCNCC3)n2)cc1` [Example 8, 4-(7-Phenyl-3,4-dihydro-1,6-naphthyridin-1(2H)-yl)-N-(piperidin-4-yl)pyrimidin-2-amine] yielded a 50% inhibitory concentration (IC50) not above 20 µM.
In the case of `CC(=O)N1CCC(Nc2nccc(N3CCCc4cnc(-c5ccccc5)cc43)n2)CC1` [Example 9, 1-(4-(4-(7-Phenyl-3,4-dihydro-1,6-naphthyridin-1(2H)-yl)pyrimidin-2-ylamino)-piperidin-1-yl)ethanone], the 50% inhibitory concentration (IC50) is not above 20 µM.
In the case of `C[C@@H](Cc1cccc([C@@H](C)N)c1)Nc1nccc(N2CCCc3cnc(-c4ccccc4)cc32)n1` [Example 10, N-((S)-1-(3-((R)-1-Aminoethyl)phenyl)propan-2-yl)-4-(7-phenyl-3,4-dihydro-1,6-naphthyridin-1(2H)-yl)pyrimidin-2-amine], the IC50 was not above 20 µM.
`CC(=O)c1cccc(C[C@H](C)Nc2nccc(N3CCCc4cnc(-c5ccccc5)cc43)n2)c1` [Example 12, (S)-1-(3-(2-(4-(7-Phenyl-3,4-dihydro-1,6-naphthyridin-1(2H)-yl)pyrimidin-2-yl-amino)propyl)phenyl)ethanone]: the IC50 is not above 20 µM.
As to `NCC(=O)N1CCC(Nc2nccc(N3CCCc4cnc(-c5ccccc5)cc43)n2)CC1` [Example 13, 2-Amino-1-(4(4-(7-phenyl-3,4-dihydro-1,6-naphthyridin-1(2H)-yl)pyrimidin-2-yl-amino)piperdin-1-yl)ethanone], the 50% inhibitory concentration (IC50) is not above 20 µM.
`CC(C)NCCC(=O)N1CCC(Nc2nccc(N3CCCc4cnc(-c5ccccc5)cc43)n2)CC1` [Example 14, 3-(Isopropylamino)-1-(4(4-(7-phenyl-3,4-dihydro-1,6-naphthyridin-1(2H)-yl)pyrimidin-2-ylamino)piperdin-1-yl)propan-1-one] showed an IC50 not above 20 µM.
Under `CNCCC(=O)N1CCC(Nc2nccc(N3CCCc4cnc(-c5ccccc5)cc43)n2)CC1` [Example 15, 3-(Methylamino)-1-(4(4-(7-phenyl-3,4-dihydro-1,6-naphthyridin-1(2H)-yl)-pyrimidin-2-ylamino)piperdin-1-yl)propan-1-one] stands not above 20 µM; under `CCNCCC(=O)N1CCC(Nc2nccc(N3CCCc4cnc(-c5ccccc5)cc43)n2)CC1` [Example 16, 3-(Ethylamino)-1-(4(4-(7-phenyl-3,4-dihydro-1,6-naphthyridin-1(2H)-yl)pyrimidin-2-ylamino)piperdin-1-yl)propan-1-one], not above 20 µM; under `COC(=O)[C@@H](Cc1ccccc1)Nc1nccc(N2CCCc3cnc(-c4ccccc4)cc32)n1` [Example 17, (R)-Methyl-3-phenyl-2-(4-(7-phenyl-3,4-dihydro-1,6-naphthyridin-1(2H)-yl)-pyrimidin-2-ylamino)propanoate], not above 20 µM.
Take `O=C(O)[C@@H](Cc1ccccc1)Nc1nccc(N2CCCc3cnc(-c4ccccc4)cc32)n1` [Example 18, (R)-3-Phenyl-2-(4-(7-phenyl-3,4-dihydro-1,6-naphthyridin-1(2H)-yl)pyrimidin-2-ylamino)propanoic acid]: the 50% inhibitory concentration (IC50) is not above 20 µM.
`O=C(O)C[C@@H](Cc1ccccc1)Nc1nccc(N2CCCc3cnc(-c4ccccc4)cc32)n1` [Example 19, (R)-4-Phenyl-3-(4-(7-phenyl-3,4-dihydro-1,6-naphthyridin-1(2H)-yl)pyrimidin-2-ylamino)butanoic acid]: the IC50 was not above 20 µM.
Then `O=C(C[C@@H](Cc1ccccc1)Nc1nccc(N2CCCc3cnc(-c4ccccc4)cc32)n1)N1CCOCC1` [Example 20, (R)-1-Morpholino-4-phenyl-3-(4-(7-phenyl-3,4-dihydro-1,6-naphthyridin-1(2H)-yl)pyrimidin-2-ylamino)butan-1-one], with not above 20 µM; and `O=C(C[C@@H](Cc1ccccc1)Nc1nccc(N2CCCc3cnc(-c4ccccc4)cc32)n1)NC1CC1` [Example 21, (R)-N-Cyclopropyl-4-phenyl-3-(4-(7-phenyl-3,4-dihydro-1,6-naphthyridin-1(2H)-yl)pyrimidin-2-ylamino)butanamide], with not above 20 µM; and `O=C(C[C@@H](Cc1ccccc1)Nc1nccc(N2CCCc3cnc(-c4ccccc4)cc32)n1)N1CCNCC1` [Example 22, (R)-4-Phenyl-3-(4-(7-phenyl-3,4-dihydro-1,6-naphthyridin-1(2H)-yl)pyrimidin-2-ylamino)-1-(piperazin-1yl)butan-1-one], with not above 20 µM.
The compound `CC(C)(C)OC(=O)N1CCC(Nc2ncc(F)c(N3CCCc4cnc(-c5ccccc5)cc43)n2)CC1` [Example 24] came in with an IC50 not above 20 µM.
For `Fc1cnc(NC2CCNCC2)nc1N1CCCc2cnc(-c3ccccc3)cc21` [Example 25, 5-Fluoro-4-(7-phenyl-3,4-dihydro-1,6-naphthyridin-1(2H)-yl)-N-(piperidin-4-yl)pyrimidin-2-amine], the IC50 is not above 20 µM.
In the case of `CC(=O)N1CCC(Nc2ncc(F)c(N3CCCc4cnc(-c5ccccc5)cc43)n2)CC1` [Example 26, 1-(4-(5-Fluoro-4-(7-phenyl-3,4-dihydro-1,6-naphthyridin-1(2H)-yl)pyrimidin-2-yl-amino)piperidin-1-yl)ethanone], the IC50 is not above 20 µM.
`C[C@@H](Cc1cccc(C(C)(C)N)c1)Nc1nccc(N2CCCc3ncc(-c4ccccc4)cc32)n1` [Example 29, (S)-N-(1-(3-(2-Aminopropan-2-yl)phenyl)propan-2-yl)-4-(7-phenyl-3,4-dihydro-1,5-naphthyridin-1(2H)-yl)pyrimidin-2-amine] yielded an IC50 not above 20 µM.
For the compound `CC(C)(C)OC(=O)N1CCC(Nc2nccc(N3CCCc4ncc(-c5ccccc5)cc43)n2)CC1` [Example 30, tert-Butyl-4(7-phenyl-3,4-dihydro-1,5-naphthylridin-1(2H)-pyrimidin-2-ylamino)-piperidine-1-carboxylate], the IC50 was not above 20 µM.
As to `c1ccc(-c2cnc3c(c2)N(c2ccnc(NC4CCNCC4)n2)CCC3)cc1` [Example 31, 4-(7-Phenyl-3,4-dihydro-1,5-naphthyridin-1(2H)-yl)-N-(piperidin-4-yl)pyrimidin-2-amine], the IC50 was not above 20 µM.
Take `CC(=O)N1CCC(Nc2nccc(N3CCCc4ncc(-c5ccccc5)cc43)n2)CC1` [Example 32, 1-(4-(4-(7-Phenyl-3,4-dihydro-1,5-naphthyridin-1(2H)-yl)pyrimidin-2-ylamino)-piperidin-1-yl)ethanone]: the IC50 is not above 20 µM.
Compound `NC(=O)[C@@H](Cc1ccccc1)Nc1nccc(N2CCCc3cnc(-c4ccccc4)cc32)n1` [Example 33, (R)-3-Phenyl-2-(4-(7-phenyl-3,4-dihydro-1,6-naphthyridin-1(2H)-yl)pyrimidin-2-ylamino)propanamide] displayed a 50% inhibitory concentration (IC50) not above 20 µM.
Then `NC1CCC(Nc2nccc(N3CCCc4cnc(-c5ccccc5)cc43)n2)CC1` [Example 34, (1R,4R)-N^1-(4-(7-Phenyl-3,4-dihydro-1,6-naphthyridin-1(2H)-yl)pyrimidin-2-yl)cyclohexane-1,4-diamine], with not above 20 µM.
Then `CC(=O)NC1CCC(Nc2nccc(N3CCCc4cnc(-c5ccccc5)cc43)n2)CC1` [Example 35, N-((1R,4R)-4-(4-(7-Phenyl-3,4-dihydro-1,6-naphthyridin-1(2H)-yl)pyrimidin-2-ylamino)cyclohexyl)acetamide], with not above 20 µM; and `O=C(CC(F)(F)F)NC1CCC(Nc2nccc(N3CCCc4cnc(-c5ccccc5)cc43)n2)CC1` [Example 36, 3,3,3-Trifluoro-N-((1R,4R)-4-(4-(7-phenyl-3,4-dihydro-1,6-naphthyridin-1(2H)-yl)-pyrimidin-2-ylamino)cyclohexyl)propanamide], with not above 20 µM.

The record behind these values is US20060161001A1, “Substituted heterocyclic compounds and methods of use” (Amgen Inc., priority 2004, published 2006).
